Measurements published in US7468194B1, “Preparations for the application of anti-inflammatory agents” (Euro-Celtique, S.A., priority 1999, dated 2008).

Tested on: adult articular cartilage
Experiment: effect on cartilage of sesamoid bones, release of proteoglycan and COMP fragments
Type: cell-based, bovine
Settings: 10 min treatment at 37° C., undiluted or diluted 1:10, 1:100, 1:1000 with Ringer's solution; compared with Ringer's solution control
Experimental: In an unpublished study, the effects of povidone iodine in non-liposomal form was studied on adult articular cartilage.
Sesamoid bones were dissected within 2-4 h after slaughter from bovine metacarpo-phalangeal joints of adult animals under aseptic conditions. The cartilage from sesamoid bones of a particular animal is uniform with respect to glycosaminoglycan synthesis, glycosaminoglycan content, and proteoglycan composition. Each experimental group consisted of eight sesamoid bones from the same animal. The sesamoid bones were washed in 10 ml cold sterile Ringer's solution for 10 min, incubated respectively in 10 ml of sterile Ringer's solution (control), PVP-iodine, or PVP-iodine dilutions with Ringer's solution (1:10, 1:100, or 1:1000) at 37° C. for 10 min in a humidified atmosphere of 5% CO2 in air, and subsequently washed again for 5×5 min in 10 ml Ringer's solution in each case. […] The culture media of sesamoid bones and extracts of cartilage plugs were used for the quantitative and qualitative characterization of proteoglycans and COMP (cartilage oligomeric matrix protein), because an increased release of fragments of these cartilage matrix constituents equals to a catabolic pathway.

poly(1-vinyl-2-pyrrolidin-2-one)-iodine complex [PVP-iodine]
proteolytic fragmentation of cartilage matrix constituents (proteoglycans, COMP): no increased proteolytic fragmentation
